Measured values published in US8207156B2, “Substituted pyrazoline compounds, their preparation and use as medicaments” (Laboratorios Del Dr. Esteve, S.A., priority 2005, dated 2012).
Blank lines part the entries; values can stand above or below the compound they belong to.

Key:
CB1 receptor [1] = target: T1, CB1 receptor; test: In-vitro determination of affinity to CB1/CB2-receptors (radioligand [3H]-CP55940 binding); conditions: binding data per pharmacological methods part I, table does not say whether human transfected receptor or rat cerebellum
T1 construct: IC50 [nM]; radioligand [3H]-CP55940
In short: (§1)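 Transfected human CB1/CB2 receptors were tested with [3H]-CP55940. In the modified Govaerts method, rat cerebellum membranes (100 µg protein) were incubated with 1 nM [3H]-CP55940 and compound for 1 h at 30 °C in Tris-HCl/MgCl2/EDTA/0.5% BSA, pH 7.4, with 10 µM HU-210 defining non-specific binding. Filter-bound radioactivity was counted in triplicate and analysed by non-linear regression.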

[2] = target: recombinant human cannabinoid 1 receptor (CB1) (Homo sapiens, UniProt P21554); test: In vitro determination of antagonism to CB1-receptor ([35S]GTPγS binding assay, CHO cell membranes); type: biochemical; conditions: compound at 1 μM against agonist WIN 55,212-2 (3 nM to 3 μM); effect of Rimonabant (1 μM) defined as 100%
Chain of recombinant human cannabinoid 1 receptor (CB1) (P21554 whole entry): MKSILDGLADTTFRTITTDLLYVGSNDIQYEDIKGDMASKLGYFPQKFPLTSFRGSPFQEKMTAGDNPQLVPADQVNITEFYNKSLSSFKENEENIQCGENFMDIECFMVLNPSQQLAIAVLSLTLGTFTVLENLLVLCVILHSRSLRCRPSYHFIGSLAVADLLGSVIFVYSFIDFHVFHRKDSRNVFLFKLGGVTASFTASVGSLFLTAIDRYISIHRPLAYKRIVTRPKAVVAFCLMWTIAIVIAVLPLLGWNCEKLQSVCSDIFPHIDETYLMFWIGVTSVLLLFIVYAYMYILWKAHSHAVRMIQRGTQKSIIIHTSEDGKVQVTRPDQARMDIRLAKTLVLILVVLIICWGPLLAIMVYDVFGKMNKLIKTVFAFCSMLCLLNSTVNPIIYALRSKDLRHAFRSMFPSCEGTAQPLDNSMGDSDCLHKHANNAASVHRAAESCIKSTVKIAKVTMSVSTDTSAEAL
Description: Chinese hamster ovary (CHO) cells stably expressing recombinant human cannabinoid 1 receptor (CB1) were cultured in nutrient mixture Ham's F 12 supplemented with 10% heat-inactivated fetal bovine serum, 2 mM L-glutamine, 50 U/ml penicillin, 50 U/ml streptomycin and 0.5 mg/ml geneticin. In order to obtain cells, culture flasks were washed twice with phosphate buffered saline and scraped. Then, cells were collected by centrifugation (200×g, 10 min) and stored dry at −80° C. Cells were homogenized in ice-cold 20 mM HEPES, 10 mM EDTA (pH 7.5) and centrifuged at 40,000×g for 15 min at 4° C. The membrane pellet was resuspended in 20 mM HEPES, 0.1 mM EDTA (pH 7.5) and centrifuged for 15 min at 4° C. The final membrane pellet was resuspended in 20 mM HEPES, 0.1 mM EDTA (pH 7.5), and divided in aliquots and stored at −80° C. until use.
The reaction was performed in 96-well plates. Membranes (15 μg protein/well) were incubated for 60 min at 30° C. in buffer (50 mM HEPES, 100 mM KCl, 5 mM MgCl2,1 mM EDTA, 0.1% wt/vol bovine serum albumin, 5 μM GDP, saponin (10 μg/ml), 0.5 nM [^35S]GTPγS, pH 7.4) with compound at a final concentration of 1 μM in either the absence or presence of agonist WIN 55, 212-2 between 3 nM and 3 μM. The incubation was terminated by rapid filtration through Millipore Multiscreen glass fiber FB, and rinsed two-times with ice-cold assay buffer. Filter plates were dried and 30 μl of scintillation liquid was added. Radioactivity was determined using a Wallac Microbeta Trilux. Each experiment was performed at least in duplicate. A WIN 55, 212-2 dose-response experiment either alone or in the presence of Rimonabant (1 μM) was systematically performed.
The average of basal [^35S]GTPγS binding was subtracted from all binding data. In order to compare the antagonism results from one screening campaign to another one, the difference between the maximal agonist effect of WIN 55, 212-2 alone, and the maximal antagonism effect due to WIN 55, 212-2 plus Rimonabant (1 μM) was defined as 100%.

CB1 receptor [3] = target: T2, CB1 receptor (UniProt P20272); test: In-vitro determination of affinity to CB1/CB2-receptors (radioligand [3H]-CP55940 binding); conditions: for Inhibition [%], 10^−7 M: compound at 10^−7 M; for Inhibition [%], 10^−8 M: compound at 10^−8 M
T2 construct: other: compound at 10^−7 M; radioligand [3H]-CP55940; other: compound at 10^−8 M
In short: as §1

Structure (SMILES): O=C(C1=NN(c2ccc(Cl)cc2Cl)C(c2ccc(Cl)cc2)C1)N1CCC2CCCCC2C1 (centres unmarked) [Example 22, [5-(4-Chloro-phenyl)-1-(2,4-dichloro-phenyl)-4,5-dihydro-1H-pyrazol-3-yl]-(octahydro-isoquinolin-2-yl)-methanone]
- IC50 (CB1 receptor [1]): 79.4 nM
- Antagonism [%] [2]: 62%

Structure (SMILES): O=C(NN1CCCCCC1)C1=NN(c2ccc(Cl)cc2Cl)C(c2ccc(Br)cc2)C1 (centres unmarked) [Example 68, 5-(4-Bromo-phenyl)-1-(2,4-dichloro-phenyl)-4,5-dihydro-1H-pyrazole-3-carboxylic acid azepan-1-ylamide]
- IC50 (CB1 receptor [1]): 39.8 nM
- Antagonism [%] [2]: 98%

Structure (SMILES): CC1CCCC(C)N1NC(=O)C1=NN(c2ccc(Cl)cc2Cl)C(c2ccc(Cl)cc2)C1 (centres unmarked) [Example 12, 5-(4-Chloro-phenyl)-1-(2,4-dichloro-phenyl)-4,5-dihydro-1H-pyrazole-3-carboxylic acid (2,6-dimethyl-piperidin-1-yl)-amide]
- IC50 (CB1 receptor [1]): 250 nM
- Antagonism [%] [2]: 78%

Structure (SMILES): O=C(NN1CCN(C2CCCC2)CC1)C1=NN(c2ccc(Cl)cc2Cl)C(c2ccc(Br)cc2)C1 (centres unmarked) [Example 64, 5-(4-Bromo-phenyl)-1-(2,4-dichloro-phenyl)-4,5-dihydro-1H-pyrazole-3-carboxylic acid (4-cyclopentyl-piperazin-1-yl)-amide]
- IC50 (CB1 receptor [1]): 562 nM
- Antagonism [%] [2]: 63%

Structure (SMILES): O=C(NC1CCCC1)C1=NN(c2ccc(Cl)cc2Cl)C(c2ccc(Cl)cc2)C1 (centres unmarked) [Example 37, 5-(4-Chloro-phenyl)-1-(2,4-dichloro-phenyl)-4,5-dihydro-1H-pyrazole-3-carboxylic acid cyclopentylamide]
- IC50 (CB1 receptor [1]): 280 nM
- Antagonism [%] [2]: 81%

Structure (SMILES): CC1CCCC(NC(=O)C2=NN(c3ccc(Cl)cc3Cl)C(c3ccc(Cl)cc3)C2)C1 (centres unmarked) [Example 57, 5-(4-Chloro-phenyl)-1-(2,4-dichloro-phenyl)-4,5-dihydro-1H-pyrazole-3-carboxylic acid (3-methyl-cyclohexyl)-amide]
- IC50 (CB1 receptor [1]): 39.8 nM
- Antagonism [%] [2]: 81%

Structure (SMILES): CC1Cc2ccccc2N1NC(=O)C1=NN(c2ccc(Cl)cc2Cl)C(c2ccc(Cl)cc2)C1 (centres unmarked) [Example 27, 5-(4-Chloro-phenyl)-1-(2,4-dichloro-phenyl)-4,5-dihydro-1H-pyrazole-3-carboxylic acid (2-methyl-2,3-dihydro-indol-1-yl)-amide]
- Inhibition [%], 10^−7 M (CB1 receptor [3]): 50.7%
- Inhibition [%], 10^−8 M (CB1 receptor [3]): 32.9%
- IC50 (CB1 receptor [1]): 117 nM
- Antagonism [%] [2]: 31%

Structure (SMILES): O=C(C1=NN(c2ccc(Cl)cc2Cl)C(c2ccc(Cl)cc2)C1)N1CC=CCC1 (centres unmarked) [Example 74, [5-(4-Chloro-phenyl)-1-(2,4-dichloro-phenyl)-4,5-dihydro-1H-pyrazol-3-yl]-(3,6-dihydro-2H-pyridin-1-yl)-methanone]
- IC50 (CB1 receptor [1]): 794 nM
- Antagonism [%] [2]: 44%

Structure (SMILES): O=C(NN1CCCCC1)C1=NN(c2ccc(Cl)cc2Cl)C(c2ccc(F)cc2)C1 (centres unmarked) [Example 23, 1-(2,4-Dichloro-phenyl)-5-(4-fluoro-phenyl)-4,5-dihydro-1H-pyrazole-3-carboxylic acid piperidin-1-ylamide]
- IC50 (CB1 receptor [1]): 39.8 nM
- Antagonism [%] [2]: 91%

Structure (SMILES): O=C(NN1CC2CCCC2C1)C1=NN(c2ccc(Cl)cc2Cl)C(c2ccc(Br)cc2)C1 (centres unmarked) [Example 63, 5-(4-Bromo-phenyl)-1-(2,4-dichloro-phenyl)-4,5-dihydro-1H-pyrazole-3-carboxylic acid (hexahydro-cyclopenta[c]pyrrol-2-yl)-amide]
- IC50 (CB1 receptor [1]): 25.1 nM
- Antagonism [%] [2]: 119%

Structure (SMILES): Cl.O=C(NN1CCc2ccccc21)C1=NN(c2ccc(Cl)cc2Cl)C(c2ccc(Br)cc2)C1 (centres unmarked) [Example 66, 5-(4-Bromo-phenyl)-1-(2,4-dichloro-phenyl)-4,5-dihydro-1H-pyrazole-3-carboxylic acid (2,3-dihydro-indol-1-yl)-amide hydrochloride]
- IC50 (CB1 receptor [1]): 100 nM
- Antagonism [%] [2]: 86%

Structure (SMILES): CC1CCCCC1NC(=O)C1=NN(c2ccc(Cl)cc2Cl)C(c2ccc(Cl)cc2)C1 (centres unmarked) [Example 18, 5-(4-Chloro-phenyl)-1-(2,4-dichloro-phenyl)-4,5-dihydro-1H-pyrazole-3-carboxylic acid (2-methyl-cyclohexyl)-amide]
- IC50 (CB1 receptor [1]): 25.1 nM
- Antagonism [%] [2]: 78%

Structure (SMILES): O=C(NCC1CCCCC1)C1=NN(c2ccc(Cl)cc2Cl)C(c2ccc(Cl)cc2)C1 (centres unmarked) [Example 32, 5-(4-Chloro-phenyl)-1-(2,4-dichloro-phenyl)-4,5-dihydro-1H-pyrazole-3-carboxylic acid cyclohexylmethyl-amide]
- Inhibition [%], 10^−7 M (CB1 receptor [3]): 52.7%
- Inhibition [%], 10^−8 M (CB1 receptor [3]): 12%
- IC50 (CB1 receptor [1]): 84 nM

Continued, values first:

- IC50 (CB1 receptor [1]): 708 nM
- Antagonism [%] [2]: 20%
Structure (SMILES): O=C(C1=NN(c2ccc(Cl)cc2Cl)C(c2ccc(Cl)cc2)C1)N1CCCc2ccccc21 (centres unmarked) [Example 81, [5-(4-Chloro-phenyl)-1-(2,4-dichloro-phenyl)-4,5-dihydro-1H-pyrazol-3-yl]-(3,4-dihydro-2H-quinolin-1-yl)-methanone]

- IC50 (CB1 receptor [1]): 20 nM
- Antagonism [%] [2]: 112%
Structure (SMILES): COc1ccc(C2CC(C(=O)NN3CCCCC3)=NN2c2ccc(Cl)cc2Cl)cc1 (centres unmarked) [Example 106A, 1-(2,4-Dichloro-phenyl)-5-(4-methoxy-phenyl)-4,5-dihydro-1H-pyrazole-3-carboxylic acid piperidin-1-ylamide]

- IC50 (CB1 receptor [1]): 398 nM
- Antagonism [%] [2]: 57%
Structure (SMILES): O=C(NC1CCCc2ccccc21)C1=NN(c2ccc(Cl)cc2Cl)C(c2ccc(Cl)cc2)C1 (centres unmarked) [Example 76, 5-(4-Chloro-phenyl)-1-(2,4-dichloro-phenyl)-4,5-dihydro-1H-pyrazole-3-carboxylic acid (1,2,3,4-tetrahydro-naphthalen-1-yl)-amide]

- IC50 (CB1 receptor [1]; hydrochloride): 501 nM
- Antagonism [%] [2]: 63%
Structure (SMILES): CC1CCCC(C)N1NC(=O)C1=NN(c2ccc(Cl)cc2Cl)C(c2ccc(Cl)cc2)C1.Cl (centres unmarked) [Example 192, 5-(4-Chloro-phenyl)-1-(2,4-dichloro-phenyl)-4,5-dihydro-1H-pyrazole-3-carboxylic acid (2,6-dimethyl-piperidin-1-yl)-amide hydrochloride]

- IC50 (CB1 receptor [1]): > 1000 nM
- Antagonism [%] [2]: 42%
Structure (SMILES): O=C(C1=NN(c2ccc(Cl)cc2Cl)C(c2ccc(Cl)cc2)C1)N1C=NCCC1 (centres unmarked) [Example 75, [5-(4-Chloro-phenyl)-1-(2,4-dichloro-phenyl)-4,5-dihydro-1H-pyrazol-3-yl]-(5,6-dihydro-4H-pyrimidin-1-yl)-methanone]

- Inhibition [%], 10^−7 M (CB1 receptor [3]): 68.7%
- Inhibition [%], 10^−8 M (CB1 receptor [3]): 47.6%
- IC50 (CB1 receptor [1]; hydrochloride): 24 nM
Structure (SMILES): COc1ccc(C2CC(C(=O)NN3CCCCCC3)=NN2c2ccc(Cl)cc2Cl)cc1.Cl (centres unmarked) [Example 114, 1-(2,4-Dichloro-phenyl)-5-(4-methoxy-phenyl)-4,5-dihydro-1H-pyrazole-3-carboxylic acid azepan-1-ylamide hydrochloride]

- IC50 (CB1 receptor [1]): 501 nM
- Antagonism [%] [2]: 56%
Structure (SMILES): C[C@@H]1CN(C(=O)C2=NN(c3ccc(Cl)cc3Cl)C(c3ccc(Cl)cc3)C2)C[C@H](C)O1 (some centres unmarked) [Example 80, [5-(4-Chloro-phenyl)-1-(2,4-dichloro-phenyl)-4,5-dihydro-1H-pyrazol-3-yl]-(2,6-dimethyl-morpholin-4-yl)-methanone]
